# Legend:
# [1] = target: T1, cyclodiphosphate synthase IspF (Escherichia coli, UniProt P62617); experiment: HPLC-based assay, […] inhibition of the IspF-MEP complex at […] FDP; assay type: biochemical; conditions: read-out: % inhibition at 500 μM
# T1 sequence (P62617 1-159): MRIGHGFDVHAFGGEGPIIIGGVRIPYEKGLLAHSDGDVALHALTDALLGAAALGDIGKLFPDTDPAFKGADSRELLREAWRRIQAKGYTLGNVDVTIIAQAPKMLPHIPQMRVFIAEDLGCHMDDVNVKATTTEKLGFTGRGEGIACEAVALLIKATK
# [2] = target: T1, cyclodiphosphate synthase IspF; experiment: HPLC-based assay of CMP formation by purified IspF; assay type: biochemical
smiles,measurement,setting,value
"CC(C)=CCC/C(C)=C/CC/C(C)=C/CO[P@@](=O)(O)OP(=O)(O)O (stereo in doubt) [FDP, farnesyl diphosphate]",inhibition at 500 µM,[1],43%
"C[C@](O)(CO)[C@H](O)CO [ME, 2C-methyl-D-erythritol]",AC50,[2],106 ± 14 µM
"C[C@](O)(CO)[C@H](O)COP(=O)(O)O [MEP, 2C-methyl-D-erythritol 4-phosphate]",AC50,[2],133 ± 33 µM

# Reference: PMC3477264 (ACS chemical biology, 2012)
